Values of other authors in patent publication US20080254098A1, “Neural tube birth defect reduction with folic acid delivery in catamenial hygiene products” (priority 2007, published 2008).

How the values were obtained:
[1] = red blood cell folate
[2] = Norway; daily folic acid supplements of 0.4 mg or more
[3] = basis of the recommended daily intake of 2 mcg to 3 mcg

biological half-life [1]	absorption rate [3]	Compound	reduction of risk of cleft lip, with or without cleft palate [2]	births with neural tube defects (Nova Scotia, Canada, 1998-2000, after fortification began in 1998, 2.58 per 1000 in 1991-1997 before it)	percent of women with one previous neural tube defect pregnancy who had a lower risk of another child with this birth defect (Wald 1991, prescription doses of folic acid versus placebo)	reduction of incidence of neural tube defects by adequate supplementing with folic acid (current estimate, depends on local dietary habits and ethnicity)
approximately 8 weeks		Nc1nc2ncc(CNc3ccc(C(=O)N[C@@H](CCC(=O)O)C(=O)O)cc3)nc2c(=O)[nH]1 [folic acid]	40%	1.17 per 1,000	72%	50%-70%
	50%	cyanocobalamin [vitamin B12]				
